Legend:
Format in all cases: in vivo
[1] = tested on: Housefly [Musca domestica]; experiment: Housefly contact mortality in dishes (HF), 48 hours; details: μg of test compound per 25 female flies
Summary of the method: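 Residual contact test: acetone dilution, 0.01% peanut oil spreader, solvent evaporated; 25 ♀ flies (1-2 d old) per cage; sugar-water plug; 48 h mortality read. LC50 in μg/25 female flies, from dose-mortality curves; top dose 100 μg/25 flies.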

[2] = tested on: Black Bean Aphid [Aphis fabae (Scop.)]; experiment: Black bean aphid spray test on nasturtium (BBA), 48 hours; details: percent of test compound in sprayed solution
Summary of the method: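 LC50, given as percent test compound in the sprayed liquid, was calculated from dosage-mortality curves using concentrations from 0.05% downward. Sprays in 50:50 acetone-water went to runoff on ~5 cm nasturtiums carrying 25-50 aphids of mixed ages, one day after infestation. Deaths were counted 48 h later under greenhouse conditions.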

[3] = tested on: Tobacco Budworm [Heliothis virescens (Fabricius)] eggs; experiment: Tobacco budworm eggs (TBW-E); details: percent in solution; 2-day old eggs
Summary of the method: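 Paper towel patches bearing 2-day old eggs were dipped in acetone solutions of compound, then set in petri dishes over larval rearing medium at 78° F. Mortality was scored once all control eggs had hatched and larvae were feeding. LC50, from dosage-mortality curves, is given as percent compound in solution.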

[4] = tested on: Cabbage Looper [Trichoplusia ni (Hubner)]; experiment: Cabbage looper leaf dip (CL), 3-5 days; details: percent in solution, second-instar larvae
Summary of the method: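 Compounds in 50-50 acetone-water were applied by dipping squash cotyledons (about 1×1.5 in) for 2-3 s; dried leaves went into petri dishes on moist filter paper with 5 second-instar larvae under high humidity. Mortality was scored after 3-5 days; LC50 from dosage-mortality curves, as percent compound in solution.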

[5] = tested on: Maize weevil [Sitophilus zeamais (Motschulsky)]; experiment: Maize weevil on dipped corn seeds (MW), 48 hours; details: percent in solution, adult weevils
Summary of the method: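 LC50, given as percent of compound in dipping solution, comes from dosage-mortality curves over concentrations descending from 0.01%. Four corn seeds soaked 2-3 s in 50:50 acetone:water solution were dried and held with 10 adult weevils, about 25° C, mortality read after 48 h.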

Row | SMILES | LC50 HF [1] [µg] | LC50 BBA [2] [%] | LC50 TBW E (eggs) [3] [%] | LC50 CL [4] [%] | LC50 MW [5] [%]
1 | C=C(C)C(=Nc1ccc(C(F)(F)F)cc1)OCc1cccc(Oc2ccccc2)c1 [Compound 430] | < 100 | 0.0006 | 0.032 | 0.001 | 0.004
2 | CC(C)C(=Nc1ccc(C(F)(F)F)c(Br)c1)OCc1ccc(F)c(Oc2ccccc2)c1 [Compound 434] | < 100 | 0.003 | > 0.1 | 0.0017 | 0.009
3 | COc1ccc(N=C(OCc2ccc(F)c(Oc3ccccc3)c2)C(C)C)cc1F [Compound 435] | < 100 | 0.001 | 0.04 | 0.002 | > 0.01
4 | CC(C)C(=Nc1cccc(OC(F)(F)F)c1)OCc1ccc(F)c(Oc2ccccc2)c1 [Compound 437] | < 100 | 0.0003 | 0.025 | 0.00075 | > 0.01
5 | CCc1ccc(N=C(OCc2cccc(Oc3ccc(F)cc3)c2)C(C)C)cc1Cl [Compound 438] | > 100 | 0.0003 | < 0.1 | 0.0009 | > 0.01
6 | CCOc1ccc(N=C(OCc2ccc(F)c(Oc3ccccc3)c2)C(C)C)cc1F [Compound 439] | > 100 | 0.0003 | > 0.1 | 0.00045 | > 0.01
7 | CCCc1ccc(N=C(OCc2ccc(F)c(Oc3ccc(F)cc3)c2)C(C)C)cc1 [Compound 440] | > 100 | 0.0003 | < 0.1 | 0.002 | > 0.01
8 | CC(C)C(=Nc1ccc(Cl)c(F)c1)OCc1ccc(F)c(Oc2ccc(F)cc2)c1 [Compound 441] | < 100 | 0.0003 | 0.016 | 0.000025 | 0.006
9 | C=C(C)C(=Nc1ccc(C(F)(F)F)cc1)OCc1cccc(Oc2ccc(F)cc2)c1 [Compound 442] | < 100 | 0.001 | 0.035 | 0.0007 | > 0.01
10 | CC(C)C(=Nc1ccc(C(F)(F)F)cc1[N+](=O)[O-])OCc1ccc(F)c(Oc2ccccc2)c1 [Compound 445] | < 100 | 0.001 | > 0.1 | 0.00045 | > 0.01
11 | CCOc1ccc(N=C(OCc2cccc(Oc3ccc(F)cc3)c2)C(C)C)cc1Br [Compound 446] | > 100 | 0.001 | < 0.1 | 0.0008 | > 0.01
12 | CC(C)C(=Nc1cccc(C(F)(F)F)c1)OC(C)c1cccc(Oc2ccccc2)c1 (stereo not drawn) [Compound 459] | > 100 | > 0.05 | 0.1 | 0.008 | > 0.01
13 | CC(C)C(=Nc1ccc(F)c(Cl)c1)OCc1cccc(Oc2c(F)c(F)c(F)c(F)c2F)c1 [Compound 460] | > 100 | > 0.05 | > 0.1 | 0.02 | > 0.01
14 | CC(C)C(=Nc1ccc(I)c(Cl)c1)OCc1cccc(Oc2ccc(Cl)cc2)n1 [Compound 471] | < 100 | 0.001 | 0.018 | 0.00018 | > 0.01
15 | COCc1c(F)c(F)c(COC(=Nc2cccc(C(F)(F)F)c2)C(C)C)c(F)c1F [Compound 503] | 21 | 0.006 | 0.08 | 0.001 | > 0.01
16 | CC(C)C(=Nc1ccc(C(F)(F)F)cc1)OCc1cccc(Oc2ccccc2)n1 [Compound 504] | < 100 | 0.0003 | 0.05 | 0.00025 | 0.01
17 | COCc1c(F)c(F)c(COC(=Nc2ccc(F)c(Cl)c2)C(C)C)c(F)c1F [Compound 505] | 14 | 0.002 | 0.09 | 0.0024 | > 0.01
18 | CC(C)C(=Nc1cccc(C(F)(F)F)c1)OCc1cc(Oc2ccccc2)ccn1 [Compound 506] | 40 | 0.03 | > 0.1 | 0.005 | > 0.01
19 | CC(C)C(=Nc1cccc(C(F)(F)F)c1)OCc1ccnc(Oc2ccccc2)c1 [Compound 507] | 93 | 0.05 | > 0.1 | 0.002 | > 0.01
20 | CC(C)C(=Nc1cccc(C(F)(F)F)c1)OCc1cc(Oc2ccc(Cl)cc2)ccn1 [Compound 509] | 79 | > 0.05 | > 0.1 | 0.0075 | > 0.01
21 | CC(C)C(=Nc1ccc(F)c(Cl)c1)OCc1ccnc(Oc2ccccc2)c1 [Compound 510] | 54 | 0.05 | > 0.1 | 0.017 | > 0.01
22 | CC(C)C(=Nc1ccc(F)c(Cl)c1)OCc1ccnc(Oc2ccc(F)cc2)c1 [Compound 511] | 89 | 0.05 | > 0.1 | 0.0012 | > 0.01
23 | CC(C)C(=Nc1ccc(OC(F)(F)F)cc1)OCc1cccc(Oc2ccccc2)n1 [Compound 550] | < 100 | 0.002 | > 0.1 | 0.00034 | > 0.01
24 | CC(C)C(=Nc1ccc(Br)c(F)c1)OCc1cccc(Oc2ccc(Cl)cc2)n1 [Compound 551] | < 100 | 0.0006 | 0.035 | 0.00075 | > 0.01
25 | CCc1ccc(N=C(OCc2cccc(Oc3ccc(Cl)cc3)n2)C(C)C)cc1 [Compound 552] | > 100 | 0.002 | > 0.1 | 0.0016 | > 0.01
26 | CC(C)C(=Nc1ccc(Cl)cc1)OCc1cccc(Oc2ccccc2)n1 [Compound 553] | < 100 | 0.05 | 0.1 | < 0.1 | > 0.01
27 | CC(C)C(=Nc1ccc(Cl)cc1)OCc1cccc(Oc2ccc(Cl)cc2)n1 [Compound 554] | > 100 | 0.003 | 0.04 | 0.00075 | > 0.01

— US5045566A, “Novel imidate insecticides” (ICI Americas Inc., priority 1989, dated 1991)
